Data on eight compounds can be found in patent US20250163078A1, “IMIDAZOPYRIDAZINE DERIVATIVE, AND PREPARATION METHOD THEREFOR, PHARMACEUTICAL COMPOSITION THEREOF AND USE THEREOF” (SHANGHAI SIMR BIOTECHNOLOGY CO., LTD., priority 2022, published 2025).

In one series the target is T1, α1-GABAA receptor (Homo sapiens, UniProt P14867+P18507).
T1 construct: expressed in transfected cells
Briefly: Whole-cell patch-clamp electrophysiological test of positive allosteric modulation, α1-GABAAR-HEK293 cells. Conditions: read-out: Positive allosteric modulation activity on α1-GABAAR. It counts as cell-based. From the text:
(§1) An α subunit, a β subunit, and a γ subunit are essential for the formation of a complete functional GABAA receptor. […] The α1-GABAAR-HEK293 cell model simultaneously expressed the α1 subunit (protein sequence available in GenBank with an accession No.: NM_000806.5), the β3 subunit (protein sequence available in GenBank with an accession No.: NM_000814.5), and the γ2 subunit (protein sequence available in GenBank with an accession No.: NM_000816.3). The α2-GABAAR-HEK293 cell model simultaneously expressed the α2 subunit (protein sequence available in GenBank with an accession No.: NM_000807.4), the β3 subunit (protein sequence available in GenBank with an accession No.: NM_000814.5), and the γ2 subunit (protein sequence available in GenBank with an accession No.: NM_000816.3).
(§2) The above cell lines were subcultured. The α2-GABAAR-HEK293 cells were expanded for assay of the benzodiazepine (BZD) site affinity of compounds for GABAA receptors.
(§3) The positive regulation activity of the test drugs on the α1-GABAA receptor and the α2-GABAA receptor was detected by the electrophysiological method. The specific method was as follows:
(§4) Compound concentration setting: the final concentration of the compounds used for screening was 100 nM. […] The components of the extracellular solution (ECS) for electrophysiology were as follows: 150 mM NaCl, 5 mM KCl, 2.5 mM CaCl2, 1 mM MgCl2, 10 mM HEPES, and 10 mM glucose (pH 7.4); the formulation of the intracellular solution (ICS) of electrodes for electrophysiology was as follows: 140 mM CsCl, 11 mM EGTA, 10 mM HEPES, 2 mM CaCl2, 1 mM MgCl2, 4 mM MgATP, and 2 mM TEA (pH 7.3). GABA (γ-aminobutyric acid) powder was prepared into a mother liquor with pure water, which was then diluted in ECS; the compounds were first prepared into 4 mM mother liquors with dimethyl sulfoxide and then gradually diluted to corresponding concentrations in GABA-ECS. The solutions were all prepared freshly prior to the electrophysiological test.
(§5) Electrophysiological signal acquisition was performed using an EPC 10 amplifier and PatchMaster software (HEKA) or an Axon700B amplifier and Clampex software (AXON).
(§6) The recording electrode was made by pulling borosilicate glass, with an electrode resistance of 4-6 MΩ. Extracellular administration was performed using the ALA-VC-8PG™ system. A single, independently growing cell was selected. After the glass electrode formed a good seal with the cell, the membrane was ruptured to form the whole-cell configuration. The cell membrane potential was clamped at −60 mV and recorded in Gap-free mode. During the test, the extracellular solution was first applied extracellularly for about 20 s. After the baseline (Iprebaseline) stabilized, the extracellular solution was switched to GABA-ECS. At this time, the current caused by GABA (Igaba) could be detected. After about 10-20 s, when the current stabilized, the extracellular solution was switched to a mixed solution of the compound and GABA-ECS. At this point, the current caused by both the compound and GABA (Itreatment) could be detected. Finally, the solution was switched to the extracellular solution, and the test was terminated after recording for 20-40 s.
(§7) The current values at each stage were calculated based on the average value of the current after stabilization under the corresponding conditions. We defined the control current as Igaba−Iprebaseline, and the current after compound treatment as Itreatment−Iprebaseline. The allosteric modulation activity of the compounds was expressed as a percentage, calculated by the following formula: functional activity=[(Itreatment−Igaba)/(Igaba−Iprebaseline)]×100%.
A general note: In patch-clamp work, channel activity is measured electrically.

The target of series [1] is T2, α2-GABAA receptor (Homo sapiens, UniProt P18507+P47869).
T2 construct: expressed in transfected cells
Briefly: Whole-cell patch-clamp electrophysiological test of positive allosteric modulation, α2-GABAAR-HEK293 cells. It counts as cell-based. The following applies: read-out: Positive allosteric modulation activity on α2-GABAAR.
Text: as §1, §2, §3, §4, §5, §6, §7

In series [2] the test system is Chinese hamster ovary cells (CHO-WBL cells). The series is described as follows: In vitro micronucleus assay. The following applies: 3 h with S9, 3 h without S9, 24 h without S9, overall judgment positive/negative. It counts as cell-based. An excerpt: The cell stock solution was stored in liquid nitrogen. The karyotype of each batch of cell stock solution was identified, and tests confirmed that it was free from mycoplasma contamination. The number of passages after cell cloning will not exceed 15.
Immediately before use, the S9 homogenate was thawed, and the components of the S9 metabolic activation system were mixed in the proportions shown in Table 2 below.
Dose exploration experiment: In the dose exploration experiment, 8 administration concentrations were established in each administration treatment series. For each concentration of the test substance, 1 well of cells was set up.

Series [3] addresses T2, α2-GABAA receptor. The series is described as follows: Radioligand (3H-flunitrazepam) competitive binding assay at the BZD site.
Text: as §1, §2
The affinity of the compounds for the α2-GABAA receptor was determined by competing with ^3H-flunitrazepam (isotope ^3H-labelled flunitrazepam) for binding to the BZD site on the membrane proteins of HEK293 cells stably expressing the human α2-GABAA receptor.
Membrane preparation: The cells were suspended in 50 mM Tris-HCl buffer (pH=7.4), homogenized 10 times (20 s for each time) with a homogenizer on ice, and then centrifuged at 4° C. at 1000 g for 10 min. The supernatant was taken. The above steps were repeated. The supernatant was centrifuged (33800 g; Thermo, rotor: A27-8×50) at 4° C. for 60 min. The pellet was resuspended in Tris buffer (50 mM Tris-HCl, 10 mM MgCl2, 0.5 mM EDTA, and 10% glycerol). The protein content was determined (BCA (bicinchoninic acid) protein quantification assay based on the copper ion reduction method, with a BCA kit purchased from Pierce (Annoron (Beijing) Biotechnology Co., Ltd.)), and 1 mL aliquots were prepared and stored at −80° C.
Radioligand competitive binding assay: This assay was performed in a 200 μL system (96-well plate) containing 100 μL of cell membranes. The concentration of ^3H-flunitrazepam was 1 nM, and the concentrations of the test compounds were in the range of […]. Flumazenil was used as a control. To each low control (LC) well was added 1 μL of 2 mM flumazenil (the final concentration of 10 μM), and to each high control (HC) well was added 1 μL of dimethyl sulfoxide. The final concentration of the target membrane protein was […]. All sample stock solutions of test compounds were 10 mM solutions in dimethyl sulfoxide. All the samples were diluted to a concentration of 0.2 mM with dimethyl sulfoxide, and then subjected to a 4-fold serial dilution to give a total of 8 working concentration gradients. The 96-well plate was sealed with a plate sealing membrane and then incubated on a shaker at room temperature for 1 h. Meanwhile, a GF/C filter plate was soaked in a plate soaking buffer (0.3% PEI (polyethyleneimine, purchased from: Sigma-Aldrich, model: P314), stored at 4° C.) for at least 0.5 h. After the binding incubation was completed, the cells were harvested onto the GF/C filter plate using a cell harvester and washed 4 times with a washing buffer (50 mM Tris-HCl, pH 7.4, stored at 4° C.). After drying in an oven at 50° C. for 1 h, the dried GF/C filter plate was bottom-sealed. The residual radioactivity on the filter membrane was detected by liquid scintillation counting. Scintillation fluid was added at 50 µL/well, and then the plate was sealed. Readings were taken using Microbeta^2 (microplate counter, purchased from: PerkinElmer, model: CNLL0153). The inhibitory activity of the test samples on the binding of ^3H-flunitrazepam to the GABAA receptor membrane protein was calculated.

The mark [4] stands for this setting: membranes of HEK293 cells stably expressing human α2-GABAA receptor (α2β3γ2), 1 nM 3H-flunitrazepam, Ki calculated from IC50, read-out: α2 Ki.
[5] abbreviates: compound 100 nM, GABA about EC2-4, normalised to positive compound CVL-865 (=100%), negative value = reverse allosteric modulation.
Setting [6] is: compound 100 nM, GABA 0.10-0.11 M [sic] (about EC70.8), normalised to positive compound CVL-865 (=100%).

Each structure is given as a SMILES string. pKi: −log10 of the molar value. Read-outs that look alike come from different tables or passages of the source.

As to `CCn1cnc2c(-c3ccc(F)c(-c4ccc(S(=O)(=O)CC)cc4OC)c3)cnnc21` [CVL-865, reference compound], the activation at 0.1 µM at α1-GABAA receptor and on α2-GABAA receptor [1] was 100% throughout. In addition, in series [2], the “Results of in vitro micronucleus assay” value was “Positive”.

Broadly, the pKi is −log10 of the Ki, conventionally taken in molar units. At α2-GABAA receptor [3], `CCn1cnc2c(-c3ccc(F)c(-c4cn5cc(C6CC6)nc5cc4OC)c3)cnnc21` [Example 37, 4-(3-(2-Cyclopropyl-7-methoxyimidazo[1,2-a]pyridin-6-yl)-4-fluorophenyl)-7-ethyl-7H-imidazo[4,5-c]pyridazine] showed a pKi of 8.19. For the same compound, the activation at 0.1 µM is 74% on α1-GABAA receptor and 79% at α2-GABAA receptor [1]. In addition, in series [2], the “Results of in vitro micronucleus assay” value is “Negative”.

With `CCn1cnc2c(-c3ccc(F)c(-c4cn5cc(C(F)F)nc5cc4OC)c3)cnnc21` [Example 41, 4-(3-(2-(Difluoromethyl)-7-methoxyimidazo[1,2-a]pyridin-6-yl)-4-fluorophenyl)-7-ethyl-7H-imidazo[4,5-c]pyridazine], the pKi at α2-GABAA receptor [3] (setting [4]) was 9.96. Besides, the results for the activation at 0.1 µM at α1-GABAA receptor (setting [5]) and at α2-GABAA receptor [1] (setting [6]) were 59% and 178%, respectively.

As to `CCn1cnc2c(-c3ccc(F)c(-c4c(OC)ccc5nccn45)c3)cnnc21` [Example 49, 7-Ethyl-4-(4-fluoro-3-(6-methoxyimidazo[1,2-a]pyridin-5-yl)phenyl)-7H-imidazo[4,5-c]pyridazine], the pKi on α2-GABAA receptor [3] (setting [4]) is 7.78. Also, the activation at 0.1 µM was 44% on α1-GABAA receptor (setting [5]) and 82% at α2-GABAA receptor [1] (setting [6]).

The compound `CCn1cnc2c(-c3ccc(F)c(-c4cn5cc(C)nc5cc4OC)c3)cnnc21` [Example 50, 7-Ethyl-4-(4-fluoro-3-(7-methoxy-2-methylimidazo[1,2-a]pyridin-6-yl)phenyl)-7H-imidazo[4,5-c]pyridazine] had a pKi at α2-GABAA receptor [3] of 8.00. Besides, the results for the activation at 0.1 µM at α1-GABAA receptor and on α2-GABAA receptor [1] were 29% and 103%, respectively.

For the compound `CCn1cnc2c(-c3ccc(F)c(-c4cn5ccnc5cc4OC)c3)cnnc21` [Example 52, 7-Ethyl-4-(4-fluoro-3-(7-methoxyimidazo[1,2-a]pyridin-6-yl)phenyl)-7H-imidazo[4,5-c]pyridazine], the pKi on α2-GABAA receptor [3] (setting [4]) was 8.09. Further, the activation at 0.1 µM on α1-GABAA receptor (setting [5]) came out at 19%; on α2-GABAA receptor [1] (setting [6]), 99%.

Regarding `CCn1cnc2c(-c3ccc(F)c(-c4ccn5c(C)cnc5c4COC)c3)cnnc21` [Example 54, 7-Ethyl-4-(4-fluoro-3-(8-(methoxymethyl)-3-methylimidazo[1,2-a]pyridin-7-yl)phenyl)-7H-imidazo[4,5-c]pyridazine], on α2-GABAA receptor [3] (setting [4]), the pKi is 8.53. In addition, the activation at 0.1 µM was found to be 47% on α1-GABAA receptor (setting [5]) and 100% at α2-GABAA receptor [1] (setting [6]).

With `CCn1cnc2c(-c3ccc(F)c(-c4ccn5c(C)nnc5c4COC)c3)cnnc21` [Example 58, 7-Ethyl-4-(4-fluoro-3-(8-(methoxymethyl)-3-methyl-[1,2,4]triazolo[4,3-a]pyridin-7-yl)phenyl)-7H-imidazo[4,5-c]pyridazine], the pKi at α2-GABAA receptor [3] (setting [4]) was 7.94. The values for the activation at 0.1 µM at α1-GABAA receptor (setting [5]) and at α2-GABAA receptor [1] (setting [6]) were 40% and 123%, respectively.
